15 molecules from ChEMBL document CHEMBL3632477 (2015) can be followed below.

pEC50: −log10 of the molar value. Where a SMILES comes first, the peptide text is derived from it. Bridges are numbered along the chain shown (N, C = ends). [ ]: non-standard residue; d: D form. ξ: configuration not given here. Bip(2'-Et-4'-OMe) = CCc1cc(OC)ccc1-c1ccc(C[C@H](N)C(=O)O)cc1; αMePhe(2,6-F2) = C[C@](N)(Cc1c(F)cccc1F)C(=O)O; Bip = N[C@@H](Cc1ccc(-c2ccccc2)cc1)C(=O)O; αMePhe(2-F) = C[C@](N)(Cc1ccccc1F)C(=O)O; ξαMePhe(2-F) = CC(N)(Cc1ccccc1F)C(=O)O; hhPhe = N[C@@H](CCCc1ccccc1)C(=O)O; αMeF = C[C@](N)(Cc1ccccc1)C(=O)O; ξαMeF = CC(N)(Cc1ccccc1)C(=O)O; Pen = CC(C)(S)[C@H](N)C(=O)O; Aib = CC(C)(N)C(=O)O

For orientation: pEC50 means the EC50 on a negative log10 scale, so that one unit is a factor of ten.

The target of the test is Glucagon-like peptide 1 receptor (Homo sapiens, UniProt P43220). Briefly: Agonist activity at human GLP-1R expressed in CHO-K1 cells assessed as increase in cAMP level incubated for 30 mins. It is filed as functional, cell-based. Background: Changes in cAMP serve as a functional read-out for many G protein-coupled receptors.
Sequence of Glucagon-like peptide 1 receptor (P43220 whole entry): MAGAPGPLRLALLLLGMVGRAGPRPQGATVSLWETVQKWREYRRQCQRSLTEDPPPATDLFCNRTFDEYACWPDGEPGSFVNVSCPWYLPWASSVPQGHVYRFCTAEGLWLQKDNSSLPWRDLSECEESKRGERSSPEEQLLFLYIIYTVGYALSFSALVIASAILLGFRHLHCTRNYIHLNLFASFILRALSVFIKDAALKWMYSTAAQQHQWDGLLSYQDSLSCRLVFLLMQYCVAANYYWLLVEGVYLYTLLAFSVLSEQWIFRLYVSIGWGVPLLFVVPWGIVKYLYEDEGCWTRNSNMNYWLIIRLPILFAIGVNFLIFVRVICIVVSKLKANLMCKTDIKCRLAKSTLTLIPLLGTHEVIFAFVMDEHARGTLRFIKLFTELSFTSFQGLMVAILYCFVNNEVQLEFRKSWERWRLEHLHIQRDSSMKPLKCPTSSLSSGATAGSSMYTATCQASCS
Take `CCc1cc(OC)ccc1-c1ccc(C[C@H](NC(=O)[C@H](CS)NC(=O)[C@H](CO)NC(=O)[C@@H](NC(=O)[C@](C)(Cc2ccccc2F)NC(=O)[C@H](CS)NC(=O)CNC(=O)[C@H](CCC(=O)O)NC(=O)C(C)(C)NC(=O)[C@@H](N)Cc2cnc[nH]2)[C@@H](C)O)C(=O)N[C@@H](CCCc2ccccc2)C(N)=O)cc1` (H-H[Aib]EGC[αMePhe(2-F)]TSC[Bip(2'-Et-4'-OMe)][hhPhe]-NH2): the negative logarithm of the EC50 (pEC50) was 6.07. The figure for `CCc1cc(OC)ccc1-c1ccc(C[C@H](NC(=O)[C@H](CC(=O)O)NC(=O)[C@H](CO)NC(=O)[C@@H](NC(=O)[C@](C)(Cc2ccccc2)NC(=O)[C@@H](NC(=O)CNC(=O)[C@H](CCC(=O)O)NC(=O)[C@@H]2CCCN2C(=O)[C@@H](N)Cc2cnc[nH]2)[C@@H](C)O)[C@@H](C)O)C(=O)N[C@@H](CCCc2ccccc2)C(=O)N[C@H]2CSSC[C@@H](C(=O)N[C@@H](CO)C(=O)O)NC(=O)[C@H](C)NC(=O)CNC(=O)CNC(=O)CNC(=O)[C@H](C)NC(=O)[C@H](C)NC(=O)[C@H](Cc3ccc(-c4ccccc4)cc3)NC(=O)CNC2=O)cc1` (H-HPEGT[αMeF]TSD[Bip(2'-Et-4'-OMe)][hhPhe]CG[Bip]AAGGGACS-OH; disulfide 12-21) is 7.33; for `CCc1cc(OC)ccc1-c1ccc(C[C@@H]2NC(=O)[C@H](CC(=O)O)NC(=O)[C@H](CO)NC(=O)[C@H]([C@@H](C)O)NC(=O)[C@](C)(Cc3c(F)cccc3F)NC(=O)[C@H]([C@@H](C)O)NC(=O)CNC(=O)[C@H](CCC(=O)O)NC(=O)[C@@H]3CCCN3C(=O)[C@H](Cc3cnc[nH]3)NC(=O)[C@H](CO)NC(=O)[C@H](C(C)(C)S)NC(=O)[C@H](C)NC(=O)CNC(=O)CNC(=O)CNC(=O)[C@H](C)NC(=O)[C@H](C)NC(=O)CNC(=O)CNC(=O)[C@H](C(C)(C)S)NC(=O)[C@H](CCCc3ccccc3)NC2=O)cc1` (cyclo(AAGGGA[Pen]SHPEGT[αMePhe(2,6-F2)]TSD[Bip(2'-Et-4'-OMe)][hhPhe][Pen]GG)) it is 5.70. The value for `CCc1cc(OC)ccc1-c1ccc(C[C@@H]2NC(=O)[C@H](CC(=O)O)NC(=O)[C@H](CO)NC(=O)[C@H]([C@@H](C)O)NC(=O)[C@H](Cc3ccccc3)NC(=O)[C@H]([C@@H](C)O)NC(=O)CNC(=O)[C@H](CCC(=O)O)NC(=O)[C@@H]3CCCN3C(=O)[C@H](Cc3cnc[nH]3)NC(=O)[C@H](CO)NC(=O)[C@@H]3CSSC[C@H](NC(=O)[C@H](CCCc4ccccc4)NC2=O)C(=O)NCC(=O)NCC(=O)N[C@@H](C)C(=O)N[C@@H](C)C(=O)NCC(=O)NCC(=O)NCC(=O)N[C@@H](C)C(=O)N3)cc1` (cyclo(AAGGGACSHPEGTFTSD[Bip(2'-Et-4'-OMe)][hhPhe]CGG); disulfide 7-20) was 6.41. The figure for `CCc1cc(OC)ccc1-c1ccc(C[C@@H]2NC(=O)[C@H](CC(=O)O)NC(=O)[C@H](CO)NC(=O)[C@@H]3CSSC[C@@H](C(=O)O)NC(=O)[C@H](CSSC[C@H](NC(=O)CNC(=O)[C@H](CCC(=O)O)NC(=O)C(C)(C)NC(=O)[C@@H](N)Cc4cnc[nH]4)C(=O)NC(C)(Cc4ccccc4)C(=O)N3)NC(=O)[C@H](CC(C)C)NC(=O)[C@H](CCCc3ccccc3)NC2=O)cc1` (stereo not given in full) (H-H[Aib]EGC[ξαMeF]CSD[Bip(2'-Et-4'-OMe)][hhPhe]LCC-OH; disulfide 5-13, 7-14) is 5.80. For the molecule `CCc1cc(OC)ccc1-c1ccc(C[C@H](NC(=O)[C@H](CC(=O)O)NC(=O)[C@H](CO)NC(=O)[C@@H](NC(=O)[C@](C)(Cc2c(F)cccc2F)NC(=O)[C@@H](NC(=O)CNC(=O)[C@H](CCC(=O)O)NC(=O)[C@@H]2CCCN2C(=O)[C@@H](N)Cc2cnc[nH]2)[C@@H](C)O)[C@@H](C)O)C(=O)N[C@@H](CCCc2ccccc2)C(=O)N[C@H]2CSSC[C@@H](C(=O)N[C@@H](CO)C(=O)O)NC(=O)[C@H](C)NC(=O)CNC(=O)CNC(=O)CNC(=O)[C@H](C)NC(=O)[C@H](C)NC(=O)[C@H](Cc3ccc(-c4ccccc4)cc3)NC(=O)CNC2=O)cc1` (H-HPEGT[αMePhe(2,6-F2)]TSD[Bip(2'-Et-4'-OMe)][hhPhe]CG[Bip]AAGGGACS-OH; disulfide 12-21), the negative-log EC50 (pEC50) is 8.62. On to `CCc1cc(OC)ccc1-c1ccc(C[C@H](NC(=O)[C@H](CC(=O)O)NC(=O)[C@H](CS)NC(=O)[C@@H](NC(=O)[C@](C)(Cc2ccccc2F)NC(=O)[C@@H](NC(=O)CNC(=O)[C@H](CCC(=O)O)NC(=O)C(C)(C)NC(=O)[C@@H](N)Cc2cnc[nH]2)[C@@H](C)O)[C@@H](C)O)C(=O)N[C@@H](CCCc2ccccc2)C(=O)N[C@H](CS)C(N)=O)cc1`, for which the pEC50 was 5.94.

Consider `CCc1cc(OC)ccc1-c1ccc(C[C@@H]2NC(=O)[C@H](CC(=O)O)NC(=O)[C@H](CO)NC(=O)[C@H]([C@@H](C)O)NC(=O)[C@](C)(Cc3ccccc3)NC(=O)[C@H]([C@@H](C)O)NC(=O)CNC(=O)[C@H](CCC(=O)O)NC(=O)[C@@H]3CCCN3C(=O)[C@H](Cc3cnc[nH]3)NC(=O)[C@H](CO)NC(=O)[C@@H]3CSSC[C@H](NC(=O)[C@H](CCCc4ccccc4)NC2=O)C(=O)NCC(=O)N[C@@H](Cc2ccc(-c4ccccc4)cc2)C(=O)N[C@@H](C)C(=O)N[C@@H](C)C(=O)NCC(=O)NCC(=O)NCC(=O)N[C@@H](C)C(=O)N3)cc1` (cyclo(AAGGGACSHPEGT[αMeF]TSD[Bip(2'-Et-4'-OMe)][hhPhe]CG[Bip]); disulfide 7-20), for which the pEC50 was 6.44. The value for `CCc1cc(OC)ccc1-c1ccc(C[C@H](NC(=O)[C@H](CC(=O)O)NC(=O)[C@H](CO)NC(=O)[C@@H](NC(=O)[C@](C)(Cc2c(F)cccc2F)NC(=O)[C@@H](NC(=O)CNC(=O)[C@H](CCC(=O)O)NC(=O)[C@@H]2CCCN2C(=O)[C@@H](N)Cc2cnc[nH]2)[C@@H](C)O)[C@@H](C)O)C(=O)N[C@@H](CCCc2ccccc2)C(=O)N[C@H]2CSSC[C@@H](C(=O)N[C@@H](CO)C(N)=O)NC(=O)[C@H](C)NC(=O)CNC(=O)CNC(=O)CNC(=O)[C@H](C)NC(=O)[C@H](C)NC(=O)CNC(=O)CNC2=O)cc1` (H-HPEGT[αMePhe(2,6-F2)]TSD[Bip(2'-Et-4'-OMe)][hhPhe]CGGAAGGGACS-NH2; disulfide 12-21) was 7.89; that for `CCc1cc(OC)ccc1-c1ccc(C[C@@H]2NC(=O)[C@H](CC(=O)O)NC(=O)[C@H](CO)NC(=O)[C@H]([C@@H](C)O)NC(=O)[C@](C)(Cc3ccccc3)NC(=O)[C@H]([C@@H](C)O)NC(=O)CNC(=O)[C@H](CCC(=O)O)NC(=O)[C@@H]3CCCN3C(=O)[C@H](Cc3cnc[nH]3)NC(=O)[C@H](CO)NC(=O)[C@@H]3CSSC[C@H](NC(=O)[C@H](CCCc4ccccc4)NC2=O)C(=O)NCC(=O)NCC(=O)N[C@@H](C)C(=O)N[C@@H](C)C(=O)NCC(=O)NCC(=O)NCC(=O)N[C@@H](C)C(=O)N3)cc1` (cyclo(AAGGGACSHPEGT[αMeF]TSD[Bip(2'-Et-4'-OMe)][hhPhe]CGG); disulfide 7-20) was 5.70; that for `CCc1cc(OC)ccc1-c1ccc(C[C@@H]2NC(=O)[C@H](CC(=O)O)NC(=O)[C@H](CO)NC(=O)[C@@H]3CSSC[C@@H](C(=O)O)NC(=O)[C@H](CSSC[C@H](NC(=O)CNC(=O)[C@H](CCC(=O)O)NC(=O)C(C)(C)NC(=O)[C@@H](N)Cc4cnc[nH]4)C(=O)NC(C)(Cc4ccccc4F)C(=O)N3)NC(=O)[C@H](CC(C)C)NC(=O)[C@H](CCCc3ccccc3)NC2=O)cc1` (stereo not given in full) (H-H[Aib]EGC[ξαMePhe(2-F)]CSD[Bip(2'-Et-4'-OMe)][hhPhe]LCC-OH; disulfide 5-13, 7-14) was 5.30. Take `CCc1cc(OC)ccc1-c1ccc(C[C@H](NC(=O)[C@H](CC(=O)O)NC(=O)[C@H](CO)NC(=O)[C@@H](NC(=O)[C@](C)(Cc2c(F)cccc2F)NC(=O)[C@@H](NC(=O)CNC(=O)[C@H](CCC(=O)O)NC(=O)[C@@H]2CCCN2C(=O)[C@@H](N)Cc2cnc[nH]2)[C@@H](C)O)[C@@H](C)O)C(=O)N[C@@H](CCCc2ccccc2)C(=O)N[C@H]2CSSC[C@@H](C(=O)N[C@@H](CO)C(=O)O)NC(=O)[C@H](C(C)C)NC(=O)[C@H](C(C)C)NC(=O)CNC(=O)[C@H](C(C)C)NC(=O)[C@H](C(C)C)NC(=O)[C@H](C(C)C)NC(=O)CNC(=O)CNC2=O)cc1` (H-HPEGT[αMePhe(2,6-F2)]TSD[Bip(2'-Et-4'-OMe)][hhPhe]CGGVVVGVVCS-OH; disulfide 12-21): the negative-log EC50 (pEC50) is 7.72. The figure for `CCc1cc(OC)ccc1-c1ccc(C[C@@H]2NC(=O)[C@H](CC(=O)O)NC(=O)[C@H](CO)NC(=O)[C@H]([C@@H](C)O)NC(=O)[C@](C)(Cc3ccccc3F)NC(=O)[C@H]([C@@H](C)O)NC(=O)CNC(=O)[C@H](CCC(=O)O)NC(=O)[C@@H]3CCCN3C(=O)[C@H](Cc3cnc[nH]3)NC(=O)[C@H](CO)NC(=O)[C@@H]3CSSC[C@H](NC(=O)[C@H](CCCc4ccccc4)NC2=O)C(=O)NCC(=O)NCC(=O)N[C@@H](C)C(=O)N[C@@H](C)C(=O)NCC(=O)NCC(=O)NCC(=O)N[C@@H](C)C(=O)N3)cc1` (cyclo(AAGGGACSHPEGT[αMePhe(2-F)]TSD[Bip(2'-Et-4'-OMe)][hhPhe]CGG); disulfide 7-20) is 6.00; for `CCc1cc(OC)ccc1-c1ccc(C[C@H](NC(=O)[C@H](CC(=O)O)NC(=O)[C@H](CO)NC(=O)[C@@H](NC(=O)[C@](C)(Cc2c(F)cccc2F)NC(=O)[C@@H](NC(=O)CNC(=O)[C@H](CCC(=O)O)NC(=O)[C@@H]2CCCN2C(=O)[C@@H](N)Cc2cnc[nH]2)[C@@H](C)O)[C@@H](C)O)C(=O)N[C@@H](CCCc2ccccc2)C(=O)N[C@H](C(=O)NCC(=O)NCC(=O)N[C@@H](C)C(=O)N[C@@H](C)C(=O)NCC(=O)NCC(=O)NCC(=O)N[C@@H](C)C(=O)N[C@H](C(=O)N[C@@H](CO)C(=O)O)C(C)(C)S)C(C)(C)S)cc1` (H-HPEGT[αMePhe(2,6-F2)]TSD[Bip(2'-Et-4'-OMe)][hhPhe][Pen]GGAAGGGA[Pen]S-OH) it is 8.60; for `CCc1cc(OC)ccc1-c1ccc(C[C@@H]2NC(=O)[C@H](CC(=O)O)NC(=O)[C@H](CO)NC(=O)[C@H]([C@@H](C)O)NC(=O)[C@](C)(Cc3c(F)cccc3F)NC(=O)[C@H]([C@@H](C)O)NC(=O)CNC(=O)[C@H](CCC(=O)O)NC(=O)C(C)(C)NC(=O)[C@H](Cc3cnc[nH]3)NC(=O)[C@H](CO)NC(=O)[C@@H]3CSSC[C@H](NC(=O)[C@H](CCCc4ccccc4)NC2=O)C(=O)NCC(=O)NCC(=O)N[C@@H](C)C(=O)N[C@@H](C)C(=O)NCC(=O)NCC(=O)NCC(=O)N[C@@H](C)C(=O)N3)cc1` (cyclo(AAGGGACSH[Aib]EGT[αMePhe(2,6-F2)]TSD[Bip(2'-Et-4'-OMe)][hhPhe]CGG); disulfide 7-20) it is 5.85.
